Measured values from patent US10501460B2, “Heterocyclic compounds and uses thereof” (Plexxikon Inc., priority 2013, dated 2019).

Tested on: bromodomain
Test: Bromodomain cell assays of Example 40 (at least one of them)
Format: cell-based
Details: in at least one of the bromodomain cell assays described in Example 40
Description: Published bromodomain inhibitors JQ1 and iBET 151 have shown activity in variety of cancer cells such leukemia and lymphoma, multiple myeloma cells, NUT midline carcinoma and glioblastoma cells (Dawson M A et al. 2011; Delmore J E 2011; Chen Z et al. 2013; Filippakopoulos P et al. 2010; Mertz J A et al. 2011; Ott C J et al. 2012). In this study, we test compounds in different cancer cell lines. MV-4-11 and MOLM-13 are AML cell lines harboring a MLL-AF4 and MLL-AF9 translocation, respectively. MM.1S is a multiple myeloma cell line. SK-N-AS, IMR-32 and SK-N-BE(2) are neuroblastoma cell lines. IMR-32 and SK-N-BE(2) cell lines harbor MYCN amplifications. MV-4-11, MM.1S, IMR-32, SK-N-AS and SK-N-BE(2) were obtained from ATCC (IL, USA) and MOLM-13 were purchased from DSMZ (Braunschweig, German). Cells are cultured as recommended by their sources. For growth inhibition studies 3000 cells are seeded in wells of a 96-well plate in 75 μL of culture media. After several hours, growth media containing compounds of formula (I) are added to the wells. Compound at a maximal concentration of 5 mM was serially diluted 1:3 for a total of 8 point titration with DMSO as a control. A 1 μL aliquot of each dilution point is added to 249 μL growth media and 75 μL is added to each well containing cells, providing 10 μM compound at the maximum concentration point. The final concentration of DMSO in all wells is 0.2%. Cells are incubated for 72 hours, and 25 μL of CellTiter Glo Reagent (Promega Ga., USA) is added to each well. Plates are shaken for approximately 10 minutes and chemiluminescent signal is read on Tecan microplate reader. The measured luminescence correlates directly with cell number.
All data is normalized to the mean of eight DMSO high control wells on each plate. A four parameter curve fit of the following formula was then applied: Y=a+(b−a)/(1+(x/c)^d) Where ‘a’ is the minimum, ‘b’ is the maximum, ‘c’ is the pIC50 and ‘d’ is the Hill slope. […] Myc Reporter Assay
In MV-4-11 cells, BRD2, BRD3 and BRD4 bind to the promoter region of MYC and regulate its transcription (Dawson M A et al. 2011). The literature bromodomain inhibitor iBET 151 could disrupt BRD4 recruitment to the MYC promoter and subsequently downregulate c-myc transcription (Dawson M A et al. 2011). Myc protein is a transcription factor that heterodimerizes with an obligatory partner Max and regulates the transcription of genes important for cell proliferation, differentiation, and apoptosis. This Myc reporter assay is used to monitor the inhibitory effect of compound of formula (I) on Myc dependent gene expression. Effective compounds could have potential therapeutic effects in Myc-driven tumors.
The MV-4-11 Myc reporter cell line is established by infecting MV-4-11 with VSV-g pseudotyped lentivirus expressing the firefly luciferase gene under the control of a minimal (m) CMV promoter and tandem repeats of the E-box transcriptional response element (TRE) (Qiagen IL, USA) and selecting cells in […] Puromycin.
The MV-4-11 Myc reporter cell line is maintained in Iscove's Modified Dulbecco's Medium containing 10% FBS, 1% PenStep and 2.5 μg/ml Puromycin. Cells are incubated at 37° C. in a humidified atmosphere with 5% CO2. 25,000 cells are seeded in 96-well plate in 50 μL of culture media. After several hours, growth media containing 2× compounds are added to the wells. Compound at a maximal concentration of 5 mM is serially diluted 1:3 for a total of 8 point titration. A 1 μl aliquot of each dilution point is added to 249 μl growth media and 50 μl is added to each well containing cells, providing 10 μM compound at the maximum concentration point. DMSO treated cells serve as a high control and 10 μM JQ1 treated cells serve as a low control. Cells are incubated for a further 24 hours and 25 μL of CellTiter-Fluo Reagent (Promega Ga., USA) is added to each well. Plates are shaken for approximately 2 minutes and incubated at 37° C. for 0.5 hour. […]

IC50 [µM] | SMILES
< 10 | [2H]C([2H])(F)C(c1ccccc1)n1cc(-c2cnn(C)c2)c2ncc(-c3c(C)noc3C)cc21 (stereo not drawn) [P-0233, 4-[1-(2,2-dideuterio-2-fluoro-1-phenyl-ethyl)-3-(1-methylpyrazol-4-yl)pyrrolo[3,2-b]pyridin-6-yl]-3,5-dimethyl-isoxazole]
< 10 | Cc1noc(C)c1-c1cnc2c(I)cn(CC3(F)CCCCC3)c2c1 [P-0234, 4-[1-[(1-fluorocyclohexyl)methyl]-3-iodo-pyrrolo[3,2-b]pyridin-6-yl]-3,5-dimethyl-isoxazole]
< 10 | Cc1noc(C)c1-c1cnc2c(-c3cnn(C(F)F)c3)cn(CC3(F)CCCCC3)c2c1 [P-0235, 4-[3-[1-(difluoromethyl)pyrazol-4-yl]-1-[(1-fluorocyclohexyl)methyl]pyrrolo[3,2-b]pyridin-6-yl]-3,5-dimethyl-isoxazole]
< 10 | Cc1noc(C)c1-c1cnc2c(-c3cnn(C4CC4)c3)cn(CC3(F)CCCCC3)c2c1 [P-0236, 4-[3-(1-cyclopropylpyrazol-4-yl)-1-[(1-fluorocyclohexyl)methyl]pyrrolo[3,2-b]pyridin-6-yl]-3,5-dimethyl-isoxazole]
< 10 | Cc1noc(C)c1-c1cnc2c(-c3cnn(CC(F)(F)F)c3)cn(CC3(F)CCCCC3)c2c1 [P-0237, 4-[1-[(1-fluorocyclohexyl)methyl]-3-[1-(2,2,2-trifluoroethyl)pyrazol-4-yl]pyrrolo[3,2-b]pyridin-6-yl]-3,5-dimethyl-isoxazole]
< 10 | COCCn1cc(-c2cn(CC3(F)CCCCC3)c3cc(-c4c(C)noc4C)cnc23)cn1 [P-0238, 4-[1-[(1-fluorocyclohexyl)methyl]-3-[1-(2-methoxyethyl)pyrazol-4-yl]pyrrolo[3,2-b]pyridin-6-yl]-3,5-dimethyl-isoxazole]

More lines, now with the values behind:

SMILES | IC50 [µM]
CCc1[nH]c2ncc(-c3c(C)noc3C)cc2c1CC1CCC(F)(F)CC1 [P-0051, 4-[3-[(4,4-difluorocyclohexyl)methyl]-2-ethyl-1H-pyrrolo[2,3-b]pyridin-5-yl]-3,5-dimethyl-isoxazole] | < 10
Cc1noc(C)c1-c1cnc2ccn(S(=O)(=O)N3CCCCC3)c2c1 [P-0067, 3,5-dimethyl-4-[1-(1-piperidylsulfonyl)pyrrolo [3,2-b]pyridin-6-yl] isoxazole] | < 10
Cc1noc(C)c1-c1cnc2c(c1)c(C(O)C1CCC(F)(F)CC1)cn2C (stereo not drawn) [P-0101, (4,4-difluorocyclohexyl)-[5-(3,5-dimethylisoxazol-4-yl)-1-methyl-pyrrolo[2,3-b]pyridin-3-yl]methanol] | < 10
Cc1noc(C)c1-c1cnc2c(I)c(C(F)(F)F)[nH]c2c1 [P-0225, 4-[3-iodo-2-(trifluoromethyl)-1H-pyrrolo[3,2-b]pyridin-6-yl]-3,5-dimethyl-isoxazole] | < 10
Cc1noc(C)c1-c1ccc2c(-c3cnn(C)c3)cn(Cc3ccccc3F)c2c1 [P-0226, 4-[1-[(2-fluorophenyl)methyl]-3-(1-methylpyrazol-4-yl)indol-6-yl]-3,5-dimethyl-isoxazole] | < 10
Cc1noc(C)c1-c1ccc2c(-c3cnn(C)c3)cn(Cc3ccccc3Cl)c2c1 [P-0227, 4-[1-[(2-chlorophenyl)methyl]-3-(1-methylpyrazol-4-yl)indol-6-yl]-3,5-dimethyl-isoxazole] | < 10
Cc1noc(C)c1-c1ccc2c(-c3cnn(C)c3)cn(Cc3ccccc3C(F)(F)F)c2c1 [P-0228, 3,5-dimethyl-4-[3-(1-methylpyrazol-4-yl)-1-[[2-(trifluoromethyl)phenyl]methyl]indol-6-yl]isoxazole] | < 10
Cc1noc(C)c1-c1ccc2c(-c3cnn(C)c3)cn(Cc3c(F)cccc3F)c2c1 [P-0229, 4-[1-[(2,6-difluorophenyl)methyl]-3-(1-methylpyrazol-4-yl)indol-6-yl]-3,5-dimethyl-isoxazole] | < 10
Cc1noc(C)c1-c1ccc2c(-c3cnn(C)c3)cn(C(C)c3ccccc3)c2c1 (stereo not drawn) [P-0232, 3,5-dimethyl-4-[3-(1-methylpyrazol-4-yl)-1-(1-phenylethyl)indol-6-yl]isoxazole] | < 10
